Experimental data taken from patent publication US9073975B2, “Cyclic peptides, their preparation and their use as inhibitors of the platelet adhesion” (SANOFI, priority 2010, dated 2015).
Non-standard residues stand in square brackets, D forms with d. Residues, ends and D or L forms follow the SMILES beside them. tBuAla = CC(C)(C)C[C@H](N)C(=O)O; Chg = N[C@H](C(=O)O)C1CCCCC1; Ac6c = NC1(C(=O)O)CCCCC1; Orn = NCCC[C@H](N)C(=O)O; Dab = NCC[C@H](N)C(=O)O; Nva = CCC[C@H](N)C(=O)O; Abu = CC[C@H](N)C(=O)O; Dap = NC[C@H](N)C(=O)O; Ahp = NCCCCCCC(=O)O

target: T1, recombinant human vWF-A1 domain (Homo sapiens, UniProt P07359); test: Static human platelet adhesion to recombinant human vWF-A1 domain; assay type: cell-based; settings: washed calcein AM labeled human platelets, static conditions, 1.5 h adhesion; read-out: Activity (IC50 for inhibition of the binding of platelets to vWF A1 domain)
T1 construct: whole blood drawn from voluntary donors; made in house; host or cells: E. coli (vWF-A1); washed platelets from human donor blood (GPIb, endogenous)
Protocol: The activity of compounds of the formula I can be shown by procedures known in the art, for example by determining their inhibition of the binding of platelets to vWF A1 domain in an appropriate assay. To this end, assay plates can be coated with vWF-A1 domain. […] Then fluorescence-labeled thrombocytes are added and incubated for 90 minutes. In a complex washing procedure all non-bound thrombocytes are removed and the plates are measured, for example in a laser-based reader Acumen Explorer or a bulk reader like Spectramax. […] To assess the effect of compounds on the interaction of the GPIb complex on platelets with vWF, an assay system was used measuring binding of human platelets to recombinant human vWF-A1 domain under static conditions in the presence and absence of the compounds. […] Platelet rich plasma was carefully removed, transferred to a fresh container and spun down for 15 min at 120 g. Platelet rich plasma was carefully transferred again to fresh containers, PGE1 (0.5 μg/ml, Sigma) was added and the suspension was allowed to rest for 5 min. This was followed by another centrifugation step for 15 min at 360 g. The supernatant was discarded and the cell pellets were carefully resuspended in tyrode buffer (NaCl, 137 mM (Sigma S-3014); KCl, 2.7 mM (Sigma P-9541); NaHCO3,12 mM ([…] 31437); NaH2PO4×2H2O, 0.36 mM (Merck 6345); […] After 5 min of resting the suspension was spun down for 15 min at 300 g. The supernatant was discarded and the pellets were carefully resuspended in TBS buffer (Tris-HCl, 50 mM (Fluka 93371); NaCl, 120 mM (Sigma S-3014); KCl, 2.7 mM (Sigma P-9541); CaCl2, 0.05 mM (Sigma C-3306); MgCl2×6 H2O, 2 mM (Sigma M-2670); […] The platelet count was adjusted to 2×10^5 cells/μl, and the suspensions from individual donors were pooled at this stage. The platelets were allowed to rest for 30 min at room temperature before calcein AM (2.5 μM per 2×10^5 cells/μl (Molecular Probes C-3099)) was added. This was followed by 15 min incubation in the dark. Cells were diluted to 5×10^4 cells/μl and ReoPro (3 μg/ml (Centocor B. V., Leiden, N L)) was added, followed by a 10 min incubation period in the dark before adding the platelets to the assay plates. 96 well plates (Greiner hb, black, clear bottom, F, 655097) were coated with human recombinant vWF-A1 domain (1.5 μg/well, AA 475-706, expressed in E. coli) in Tris buffer (pH 7.4; Tris-HCl, 25 mM; NaCl, 150 mM) and incubated for 1 h at room temperature. After washing the wells 3× with TBS, blocking buffer (TBS with 5% BSA) was added followed by an incubation for 1 h. The wells were washed again 3× with TBS before 200 μl TBS were added to each well, preventing them from drying out. TBS was flicked out and serial dilutions of the test compound were added. The washed and calcein AM labeled thrombocytes were added to the wells (2.5×10^6 cells/well). Following an adhesion period of 1.5 h in the dark the wells were washed 3× with TBS. Measurement of fluorescence per well was performed in a SpectraMax M5 reader (Molecular Devices). From the raw data % inhibition and IC50 values were calculated.

T1 sequence (P07359 17-652): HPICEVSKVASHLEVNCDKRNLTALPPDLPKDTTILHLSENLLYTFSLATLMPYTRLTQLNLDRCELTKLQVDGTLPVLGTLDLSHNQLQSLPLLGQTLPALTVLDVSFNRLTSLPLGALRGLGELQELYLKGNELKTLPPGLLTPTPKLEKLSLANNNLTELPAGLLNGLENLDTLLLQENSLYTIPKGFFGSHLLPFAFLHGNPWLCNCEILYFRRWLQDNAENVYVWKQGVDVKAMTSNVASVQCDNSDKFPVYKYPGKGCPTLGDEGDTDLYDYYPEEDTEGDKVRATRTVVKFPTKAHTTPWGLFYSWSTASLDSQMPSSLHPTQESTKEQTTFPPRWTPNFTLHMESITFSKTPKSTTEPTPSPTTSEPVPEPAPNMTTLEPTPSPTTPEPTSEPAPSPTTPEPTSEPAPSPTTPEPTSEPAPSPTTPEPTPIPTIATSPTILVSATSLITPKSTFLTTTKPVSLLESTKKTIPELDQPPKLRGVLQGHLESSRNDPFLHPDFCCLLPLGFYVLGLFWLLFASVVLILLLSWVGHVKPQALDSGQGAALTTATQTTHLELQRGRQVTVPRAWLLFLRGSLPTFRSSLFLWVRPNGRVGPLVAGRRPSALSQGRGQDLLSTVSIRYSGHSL
T1 sequence (P13224 26-206 partner): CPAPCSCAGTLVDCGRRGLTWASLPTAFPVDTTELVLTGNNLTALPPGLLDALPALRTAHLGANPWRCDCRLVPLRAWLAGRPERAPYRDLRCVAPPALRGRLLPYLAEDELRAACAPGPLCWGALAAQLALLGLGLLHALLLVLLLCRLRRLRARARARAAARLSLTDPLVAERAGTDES
T1 sequence (P14770 17-177 partner): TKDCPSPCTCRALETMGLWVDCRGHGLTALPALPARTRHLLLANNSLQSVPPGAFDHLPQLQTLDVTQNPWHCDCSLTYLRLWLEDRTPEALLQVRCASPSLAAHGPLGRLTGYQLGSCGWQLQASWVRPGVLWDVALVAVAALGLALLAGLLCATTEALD

Compound	IC50
CSCC[C@@H]1NC(=O)[C@H](CCCNC(=N)N)NC(=O)[C@H](CCC(=O)O)NC(=O)[C@H](CCN)NC(=O)CCCCCCNC(=O)[C@H](CC(C)C)NC(=O)[C@H](CC(N)=O)NC(=O)[C@H](Cc2c[nH]cn2)NC(=O)[C@H](CC(C)C)NC(=O)[C@H](C)NC1=O [Example 24, Cyclo[Leu-His-Asn-Leu-NH—(CH2)6—CO-Dbu-Glu-Arg-Met-Ala]] (cyclo(ALHNL[Ahp][Dab]ERM))	< 1000 nM
CSCC[C@@H]1NC(=O)[C@H](CCCNC(=N)N)NC(=O)[C@H](CCC(=O)O)NC(=O)[C@H](CCC(N)=O)NC(=O)CCCCCCNC(=O)[C@H](CC(C)C)NC(=O)[C@H](CC(N)=O)NC(=O)[C@H](Cc2c[nH]cn2)NC(=O)[C@H](CC(C)C)NC(=O)[C@H](C)NC1=O [Example 25, Cyclo[Leu-His-Asn-Leu-NH—(CH2)6—CO-Gln-Glu-Arg-Met-Ala]] (cyclo(ALHNL[Ahp]QERM))	< 1000 nM
CSCC[C@@H]1NC(=O)[C@H](CN)NC(=O)[C@H](CCC(=O)O)NC(=O)[C@H]([C@@H](C)O)NC(=O)CCCCCCNC(=O)[C@H](CC(C)C)NC(=O)[C@H](CC(N)=O)NC(=O)[C@H](Cc2c[nH]cn2)NC(=O)[C@H](CC(C)C)NC(=O)[C@H](C)NC1=O [Example 29, Cyclo[Leu-His-Asn-Leu-NH—(CH2)6—CO-Thr-Glu-Dpr-Met-Ala]] (cyclo(ALHNL[Ahp]TE[Dap]M))	1000 to 10000 nM
CSCC[C@@H]1NC(=O)[C@H](CCCNC(=N)N)NC(=O)[C@H](CCC(=O)O)NC(=O)[C@H]([C@@H](C)O)NC(=O)CCCCCCNC(=O)[C@H](CC(C)C)NC(=O)[C@H](CC(N)=O)NC(=O)[C@H](Cc2c[nH]cn2)NC(=O)[C@H](CC(C)C)NC(=O)[C@H](CCCNC(=N)N)NC1=O [Example 30, Cyclo[Leu-His-Asn-Leu-NH—(CH2)6—CO-Thr-Glu-Arg-Met-Arg]] (cyclo([Ahp]TERMRLHNL))	1000 to 10000 nM
CCC[C@@H]1NC(=O)[C@H](CCSC)NC(=O)[C@H](CCCNC(=N)N)NC(=O)[C@H](CCC(=O)O)NC(=O)[C@H]([C@@H](C)O)NC(=O)CCCCCCNC(=O)[C@H](CC(C)C)NC(=O)[C@H](CC(N)=O)NC(=O)[C@H](Cc2c[nH]cn2)NC(=O)[C@H](CC(C)C)NC1=O [Example 31, Cyclo[Leu-His-Asn-Leu-NH—(CH2)6—CO-Thr-Glu-Arg-Met-Nva]] (cyclo([Ahp]TERM[Nva]LHNL))	1000 to 10000 nM
CSCC[C@@H]1NC(=O)[C@H](CCCNC(=N)N)NC(=O)[C@H](CCC(=O)O)NC(=O)[C@H]([C@@H](C)O)NC(=O)CCCCCCNC(=O)[C@H](CC(C)C)NC(=O)[C@H](CC(N)=O)NC(=O)[C@H](Cc2c[nH]cn2)NC(=O)[C@H](CC(C)C)NC(=O)[C@H](CN)NC1=O [Example 32, Cyclo[Leu-His-Asn-Leu-NH—(CH2)6—CO-Thr-Glu-Arg-Met-Dpr]] (cyclo([Ahp]TERM[Dap]LHNL))	< 1000 nM
CSCC[C@@H]1NC(=O)[C@H](CCCNC(=N)N)NC(=O)[C@H](CCC(=O)O)NC(=O)[C@H]([C@@H](C)O)NC(=O)CCCCCCNC(=O)[C@H](CC(C)C)NC(=O)[C@H](CC(N)=O)NC(=O)[C@H](CCCN)NC(=O)[C@H](CC(C)C)NC(=O)[C@H](C)NC1=O [Example 34, Cyclo[Leu-Orn-Asn-Leu-NH—(CH2)6—CO-Thr-Glu-Arg-Met-Ala]] (cyclo(AL[Orn]NL[Ahp]TERM))	1000 to 10000 nM
CSCC[C@@H]1NC(=O)[C@H](CCCNC(=N)N)NC(=O)[C@H](CCC(=O)O)NC(=O)[C@H]([C@@H](C)O)NC(=O)CCCCCCNC(=O)[C@H](CC(C)C)NC(=O)[C@H](CC(N)=O)NC(=O)[C@H](Cc2c[nH]cn2)NC(=O)[C@H](CC(C)(C)C)NC(=O)[C@H](C)NC1=O [Example 36, Cyclo[Npg-His-Asn-Leu-NH—(CH2)6—CO-Thr-Glu-Arg-Met-Ala]] (cyclo(A[tBuAla]HNL[Ahp]TERM))	< 1000 nM
CSCC[C@@H]1NC(=O)[C@H](CCCNC(=N)N)NC(=O)[C@H](CCC(=O)O)NC(=O)[C@H]([C@@H](C)O)NC(=O)CCCCCCNC(=O)[C@H](CC(C)C)NC(=O)[C@H](CC(N)=O)NC(=O)[C@H](Cc2c[nH]cn2)NC(=O)C2(CCCCC2)NC(=O)[C@H](C)NC1=O [Example 37, Cyclo[Ac6-His-Asn-Leu-NH—(CH2)6—CO-Thr-Glu-Arg-Met-Ala]] (cyclo(A[Ac6c]HNL[Ahp]TERM))	1000 to 10000 nM
CC(C)C[C@@H]1NC(=O)[C@H](C)NC(=O)[C@H](C2CCCCC2)NC(=O)[C@H](CCCNC(=N)N)NC(=O)[C@H](CCC(=O)O)NC(=O)[C@H]([C@@H](C)O)NC(=O)CCCCCCNC(=O)[C@H](CC(C)C)NC(=O)[C@H](CC(N)=O)NC(=O)[C@H](Cc2c[nH]cn2)NC1=O [Example 39, Cyclo[Leu-His-Asn-Leu-NH—(CH2)6—CO-Thr-Glu-Arg-Chg-Ala]] (cyclo(ALHNL[Ahp]TER[Chg]))	1000 to 10000 nM

Other lines, results leading:

IC50	Compound
< 1000 nM	CSCC[C@@H]1NC(=O)[C@H](CCCN)NC(=O)[C@H](CCC(=O)O)NC(=O)[C@H]([C@@H](C)O)NC(=O)CCCCCCNC(=O)[C@H](CC(C)C)NC(=O)[C@H](CC(N)=O)NC(=O)[C@H](Cc2c[nH]cn2)NC(=O)[C@H](CC(C)C)NC(=O)[C@H](C)NC1=O [Example 28, Cyclo[Leu-His-Asn-Leu-NH—(CH2)6—CO-Thr-Glu-Orn-Met-Ala]] (cyclo(ALHNL[Ahp]TE[Orn]M))
1000 to 10000 nM	CSCC[C@@H]1NC(=O)[C@H](CCCNC(=N)N)NC(=O)[C@H](CCC(=O)O)NC(=O)[C@H]([C@@H](C)O)NC(=O)CCCCCCNC(=O)[C@H](CC(C)C)NC(=O)[C@H](CC(N)=O)NC(=O)[C@@H](Cc2c[nH]cn2)NC(=O)[C@H](CC(C)C)NC(=O)[C@H](C)NC1=O [Example 33, Cyclo[Leu-D-His-Asn-Leu-NH—(CH2)6—CO-Thr-Glu-Arg-Met-Ala]] (cyclo(AL[dH]NL[Ahp]TERM))
< 1000 nM	CC(C)C[C@@H]1NC(=O)[C@H](C)NC(=O)[C@H](CC(C)C)NC(=O)[C@H](CCCNC(=N)N)NC(=O)[C@H](CCC(=O)O)NC(=O)[C@H]([C@@H](C)O)NC(=O)CCCCCCNC(=O)[C@H](CC(C)C)NC(=O)[C@H](CC(N)=O)NC(=O)[C@H](Cc2c[nH]cn2)NC1=O [Example 38, Cyclo[Leu-His-Asn-Leu-NH—(CH2)6—CO-Thr-Glu-Arg-Leu-Ala]] (cyclo(ALHNL[Ahp]TERL))
< 1000 nM	CC(C)C[C@@H]1NC(=O)[C@H](C)NC(=O)[C@H](C)NC(=O)[C@H](CCCNC(=N)N)NC(=O)[C@H](CCC(=O)O)NC(=O)[C@H]([C@@H](C)O)NC(=O)CCCCCCNC(=O)[C@H](CC(C)C)NC(=O)[C@H](CC(N)=O)NC(=O)[C@H](Cc2c[nH]cn2)NC1=O [Example 40, Cyclo[Leu-His-Asn-Leu-NH—(CH2)6—CO-Thr-Glu-Arg-Ala-Ala]] (cyclo(AALHNL[Ahp]TER))
< 1000 nM	CC(C)C[C@@H]1NC(=O)[C@H](C)NC(=O)[C@H](CCC(N)=O)NC(=O)[C@H](CCCNC(=N)N)NC(=O)[C@H](CCC(=O)O)NC(=O)[C@H]([C@@H](C)O)NC(=O)CCCCCCNC(=O)[C@H](CC(C)C)NC(=O)[C@H](CC(N)=O)NC(=O)[C@H](Cc2c[nH]cn2)NC1=O [Example 41, Cyclo[Leu-His-Asn-Leu-NH—(CH2)6—CO-Thr-Glu-Arg-Gln-Ala]] (cyclo(ALHNL[Ahp]TERQ))
< 1000 nM	CC[C@@H]1NC(=O)[C@H](CCCNC(=N)N)NC(=O)[C@H](CCC(=O)O)NC(=O)[C@H]([C@@H](C)O)NC(=O)CCCCCCNC(=O)[C@H](CC(C)C)NC(=O)[C@H](CC(N)=O)NC(=O)[C@H](Cc2c[nH]cn2)NC(=O)[C@H](CC(C)C)NC(=O)[C@H](C)NC1=O [Example 42, Cyclo[Leu-His-Asn-Leu-NH—(CH2)6—CO-Thr-Glu-Arg-Abu-Ala]] (cyclo(ALHNL[Ahp]TER[Abu]))
